{
  "source": "patent US8329919B2",
  "about": "“Salt hydrates” (Novartis AG, priority 2002, dated 2012)",
  "assay": "Thermogravimetry: weight loss, i.e. water loss, as a function of temperature (thermobalance TGS-2)",
  "format": "physicochemical",
  "details": "heating rate 10 K·min^−1, water-free N2 atmosphere",
  "protocol": "Using thermogravimetry, in a water-free N2 atmosphere, the weight loss, i.e. the water loss for the tetrahydrate of the calcium salt of valsartan A1,Ca as a function of temperature, was measured at a heating rate of 10 K·min^−1. […]\nUsing thermogravimetry, in a water-free N2 atmosphere, the weight loss, i.e. the water loss for the trihydrate of the calcium salt of valsartan in the polymorphic form B1,Ca as a function of temperature, was measured at a heating rate of 10 K·min^−1.\n(§1) Using thermogravimetry, in a water-free N2 atmosphere, the weight loss, i.e. the water loss for the trihydrate B2,Ca as a function of temperature, was measured at a heating rate of 10 K·min^−1. The results for the polymorph B2,Ca of the trihydrate of the calcium salt of valsartan are illustrated in table 4.\nas §1, with “B3,Ca” for “B2,Ca”, “polymorphic form B3,Ca” for “polymorph B2,Ca”, “5.” for “4.”\nUsing thermogravimetry, in a water-free N2 atmosphere, the weight loss, i.e. the water loss for the di-(calcium salt of valsartan) pentahydrate D1,Ca as a function of temperature, was measured at a heating rate of 10 K·min^−1.\nThe instrument used for the calorimetric data is throughout a DSC Pyris 1 (Differential Scanning calorimeter) obtained from Perkin-Elmer Corp., Norwalk, Conn. USA. The measurements are performed with samples enclosed in a sealed gold specimen container with an internal free volume of ca. 22 microliters, with a sample weight of 2 to 4 mg and with a heating rate of Tr=10K·min^−1. […] The instrument used was a TGS-2 (Perkin-Elmer Corp., Norwalk, Conn. USA) and the measurement was performed in a water free atmosphere. The heating rate selected was 10 K·min^−1. The weight loss is illustrated in table 7.\nThe heating rate selected was 10K·min^−1.\nUsing thermogravimetry, in a water-free N2 atmosphere, the weight loss, i.e. the water loss for the tetrahydrate as a function of temperature, was measured at a heating rate of 10 K·min^−1. The results for the calcium salt of valsartan tetrahydrate A0,Ca are listed in the following: […]\nUsing thermogravimetry, in a water-free N2 atmosphere, the weight loss, i.e. the water loss for the tetrahydrate of the calcium salt of valsartan as a function of temperature, was measured at a heating rate of 10 K·min^−1.",
  "data": [
    {"compound": "(S)—N-(1-carboxy-2-methyl-prop-1-yl)-N-pentanoyl-N-[2′-(1H-tetrazol-5-yl)-biphenyl-4-ylmethyl]-amine calcium salt trihydrate [B2,Ca]", "values": [
      {"measurement": "weight loss or water loss in %", "setting": "temperature 25 °C", "result": 0, "unit": "%"},
      {"measurement": "weight loss or water loss in %", "setting": "temperature 25 °C, calcium salt trihydrate, crystalline trihydrate B2,Ca polymorph", "result": "0.1 ± 0.2", "unit": "%"},
      {"measurement": "weight loss or water loss in %", "setting": "temperature 50 °C, calcium salt trihydrate, crystalline trihydrate B2,Ca polymorph", "result": "0.9 ± 0.3", "unit": "%"},
      {"measurement": "weight loss or water loss in %", "setting": "temperature 75 °C, calcium salt trihydrate, crystalline trihydrate B2,Ca polymorph", "result": "2.2 ± 0.5", "unit": "%"},
      {"measurement": "weight loss or water loss in %", "setting": "temperature 100 °C, calcium salt trihydrate, crystalline trihydrate B2,Ca polymorph", "result": "5.8 ± 0.5", "unit": "%"},
      {"measurement": "weight loss or water loss in %", "setting": "temperature 125 °C, calcium salt trihydrate, crystalline trihydrate B2,Ca polymorph", "result": "8.9 ± 0.5", "unit": "%"},
      {"measurement": "weight loss or water loss in %", "setting": "temperature 150 °C, calcium salt trihydrate, crystalline trihydrate B2,Ca polymorph", "result": "9.9 ± 0.5", "unit": "%"},
      {"measurement": "weight loss or water loss in %", "setting": "temperature 175 °C, calcium salt trihydrate, crystalline trihydrate B2,Ca polymorph", "result": "10.2 ± 0.5", "unit": "%"},
      {"measurement": "weight loss or water loss in %", "setting": "temperature 200 °C", "result": 9.7, "unit": "%"},
      {"measurement": "weight loss or water loss in %", "setting": "temperature 200 °C, calcium salt trihydrate, crystalline trihydrate B2,Ca polymorph", "result": "10.3 ± 0.5", "unit": "%"},
      {"measurement": "weight loss or water loss in %", "setting": "temperature 225 °C, calcium salt trihydrate, crystalline trihydrate B2,Ca polymorph", "result": "10.5 ± 0.5", "unit": "%"},
      {"measurement": "weight loss or water loss in %", "setting": "temperature 250 °C, calcium salt trihydrate, crystalline trihydrate B2,Ca polymorph", "result": "10.5 ± 0.5", "unit": "%"},
      {"measurement": "weight loss or water loss in %", "setting": "temperature 275 °C, calcium salt trihydrate, crystalline trihydrate B2,Ca polymorph", "result": "10.8 ± 0.5", "unit": "%"}
    ]},
    {"compound": "CCCCC(=O)N(Cc1ccc(-c2ccccc2-c2nnn[nH]2)cc1)[C@H](C(=O)O)C(C)C", "note": "[B1,Mg, (S)—N-(1-carboxy-2-methyl-prop-1-yl)-N-pentanoyl-N-[2′-(1H-tetrazol-5-yl)-biphenyl-4-ylmethyl]-amine]", "values": [
      {"measurement": "weight loss or water loss in %", "setting": "temperature 25 °C", "result": "0 ± 0.1", "unit": "%"},
      {"measurement": "weight loss or water loss in %", "setting": "temperature 50 °C", "result": "2.1 ± 0.3", "unit": "%"},
      {"measurement": "weight loss or water loss in %", "setting": "temperature 75 °C", "result": "6.5 ± 0.5", "unit": "%"},
      {"measurement": "weight loss or water loss in %", "setting": "temperature 100 °C", "result": "9.5 ± 0.5", "unit": "%"},
      {"measurement": "weight loss or water loss in %", "setting": "temperature 125 °C", "result": "11.1 ± 0.5", "unit": "%"},
      {"measurement": "weight loss or water loss in %", "setting": "temperature 150 °C", "result": "12.0 ± 0.5", "unit": "%"},
      {"measurement": "weight loss or water loss in %", "setting": "temperature 175 °C", "result": "12.5 ± 0.5", "unit": "%"},
      {"measurement": "weight loss or water loss in %", "setting": "temperature 200 °C", "result": "12.8 ± 0.5", "unit": "%"},
      {"measurement": "weight loss or water loss in %", "setting": "temperature 225 °C", "result": "13.0 ± 0.5", "unit": "%"},
      {"measurement": "weight loss or water loss in %", "setting": "temperature 250 °C", "result": "13.6 ± 0.5", "unit": "%"},
      {"measurement": "weight loss or water loss in %", "setting": "temperature 275 °C", "result": "14.3 ± 0.5", "unit": "%"}
    ]}
  ]
}
